{
  "source": "ChEMBL document CHEMBL3813627",
  "about": "“Preventive effect of a novel diosgenin derivative on arterial and venous thrombosis in vivo” (Bioorg Med Chem Lett, 2016)",
  "key": {"Mus musculus [1]": {"test_system": "Mus musculus", "assay": "Toxicity in Balb/c mouse assessed as white blood cell count at 92.1 mg/kg, ig bid for 7 days (reference value: 7.7 +/- 0.65 10^9/L)", "type": "organism-based", "conditions": "in vivo, po, 168 h"}, "Mus musculus [2]": {"test_system": "Mus musculus", "assay": "Toxicity in Balb/c mouse assessed as hemoglobin count at 92.1 mg/kg, ig bid for 7 days (reference value: 143 +/- 11.9 g/L)", "type": "organism-based", "conditions": "in vivo, po, 168 h"}, "Mus musculus [3]": {"test_system": "Mus musculus", "assay": "Toxicity in Balb/c mouse assessed as hematocrit at 92.1 mg/kg, ig bid for 7 days (reference value: 40.5 +/- 3.5 %)", "type": "organism-based", "conditions": "in vivo, po, 168 h"}, "Mus musculus [4]": {"test_system": "Mus musculus", "assay": "Hepatotoxicity in Balb/c mouse assessed as changes in serum GPT level at 92.1 to 575.5 mg/kg, po administered as single dose for 7 days", "type": "toxicity, organism-based", "conditions": "in vivo, 168 h"}, "Rattus norvegicus [5]": {"species_on_record": "Rattus norvegicus", "assay": "Gastric toxicity in Sprague-Dawley rat assessed as gastric mucosal damage score treated for 49 days by hematoxylin and eosin staining based microscopic analysis", "type": "organism-based, Gastric mucosa", "conditions": "in vivo, 1176 h"}, "Rattus norvegicus [6]": {"species_on_record": "Rattus norvegicus", "assay": "Gastric toxicity in Sprague-Dawley rat assessed as angiogenesis treated for 49 days by hematoxylin and eosin staining based microscopic analysis", "type": "organism-based", "conditions": "in vivo, 1176 h"}, "Rattus norvegicus [7]": {"species_on_record": "Rattus norvegicus", "assay": "Gastric toxicity in Sprague-Dawley rat assessed as fibrotic changes treated for 49 days by hematoxylin and eosin staining based microscopic analysis", "type": "organism-based", "conditions": "in vivo, 1176 h"}, "Mus musculus [8]": {"test_system": "Mus musculus", "assay": "Toxicity in Balb/c mouse assessed as mortality at 92.1 to 575.5 mg/kg, po administered as single dose for 7 days", "type": "organism-based", "conditions": "in vivo, 168 h"}, "Mus musculus [9]": {"test_system": "Mus musculus", "assay": "Hepatotoxicity in Balb/c mouse assessed as changes in serum GOT level at 92.1 to 575.5 mg/kg, po administered as single dose for 7 days", "type": "toxicity, organism-based", "conditions": "in vivo, 168 h"}, "Mus musculus [10]": {"test_system": "Mus musculus", "assay": "Hepatotoxicity in Balb/c mouse assessed as histopathological changes at 92.1 to 575.5 mg/kg, po administered as single dose for 7 days by hematoxylin and eosin staining based microscopic analysis", "type": "toxicity, organism-based", "conditions": "in vivo, 168 h"}, "Rattus norvegicus [11]": {"test_system": "Rattus norvegicus", "assay": "Antiplatelet activity in platelet-rich plasma isolated from Sprague-Dawley rat assessed as ADP-induced platelet aggregation at 64 mg/kg, ig bid for 7 days measured for 5 mins by light transmission aggregometry (reference value: 57.57 +/- 2.43 %)", "type": "functional"}, "Rattus norvegicus [12]": {"test_system": "Rattus norvegicus", "assay": "Anticoagulant activity in platelet-rich plasma isolated from Sprague-Dawley rat assessed as activated partial thromboplastin time at 64 mg/kg, ig bid for 7 days (reference value: 17.6 +/- 0.92 secs)", "type": "functional"}, "Rattus norvegicus [13]": {"test_system": "Rattus norvegicus", "assay": "Antiplatelet activity in platelet-rich plasma isolated from ig dosed Sprague-Dawley rat assessed as inhibition of ADP-induced platelet aggregation administered bid for 7 days measured for 5 mins by light transmission aggregometry", "type": "functional, organism-based"}, "Rattus norvegicus [14]": {"test_system": "Rattus norvegicus", "assay": "Anticoagulant activity in platelet-rich plasma isolated from Sprague-Dawley rat assessed as prothrombin time at 64 mg/kg, ig bid for 7 days (reference value: 11.6 +/- 0.98 secs)", "type": "functional"}, "Rattus norvegicus [15]": {"test_system": "Rattus norvegicus", "assay": "Anticoagulant activity in platelet-rich plasma isolated from Sprague-Dawley rat assessed as thrombin time at 64 mg/kg, ig bid for 7 days (reference value: 47.1 +/- 3.1 secs)", "type": "functional"}, "Rattus norvegicus [16]": {"test_system": "Rattus norvegicus", "assay": "In vivo activation of coagulation factor8 in Sprague-Dawley rat at 64 mg/kg, ig bid for 7 days by automated coagulometry", "type": "functional, organism-based"}, "Rattus norvegicus [17]": {"test_system": "Rattus norvegicus", "assay": "In vivo activation of coagulation factor9 in Sprague-Dawley rat at 64 mg/kg, ig bid for 7 days by automated coagulometry", "type": "functional, organism-based"}, "Rattus norvegicus [18]": {"test_system": "Rattus norvegicus", "assay": "In vivo activation of coagulation factor10 in Sprague-Dawley rat at 64 mg/kg, ig bid for 7 days by automated coagulometry", "type": "functional, organism-based"}, "Rattus norvegicus [19]": {"test_system": "Rattus norvegicus", "assay": "In vivo activation of coagulation factor11 in Sprague-Dawley rat at 64 mg/kg, ig bid for 7 days by automated coagulometry", "type": "functional, organism-based"}, "Rattus norvegicus [20]": {"test_system": "Rattus norvegicus", "assay": "In vivo activation of coagulation factor12 in Sprague-Dawley rat at 64 mg/kg, ig bid for 7 days by automated coagulometry", "type": "functional, organism-based"}, "Rattus norvegicus [21]": {"test_system": "Rattus norvegicus", "assay": "Anti-thrombotic activity in Sprague-Dawley rat model of FeCl3-induced arterial thrombosis assessed as arterial thrombus length at 64 mg/kg, ig bid for 7 days by vernier caliper method (reference value: 10.5 +/- 0.83 mm)", "type": "functional"}, "Rattus norvegicus [22]": {"test_system": "Rattus norvegicus", "assay": "Anti-thrombotic activity in Sprague-Dawley rat model of FeCl3-induced arterial thrombosis assessed as arterial thrombus weight at 64 mg/kg, ig bid for 7 days (reference value: 12.94 +/- 0.7 mg)", "type": "functional"}, "Rattus norvegicus [23]": {"test_system": "Rattus norvegicus", "assay": "Anti-thrombotic activity in Sprague-Dawley rat model of FeCl3-induced venous thrombosis assessed as venous thrombus length at 64 mg/kg, ig bid for 7 days by vernier caliper method (reference value: 10.66 +/- 0.81 mm)", "type": "functional"}, "Rattus norvegicus [24]": {"test_system": "Rattus norvegicus", "assay": "Anti-thrombotic activity in Sprague-Dawley rat model of FeCl3-induced venous thrombosis assessed as venous thrombus weight at 64 mg/kg, ig bid for 7 days (reference value: 17.1 +/- 0.69 mg)", "type": "functional"}, "Mus musculus [25]": {"test_system": "Mus musculus", "assay": "Toxicity in Balb/c mouse assessed as tail bleeding time at 92.1 mg/kg, ig bid for 7 days (reference value: 186 +/- 12 sec)", "type": "organism-based", "conditions": "in vivo, po"}, "Mus musculus [26]": {"test_system": "Mus musculus", "assay": "Toxicity in Balb/c mouse assessed as red blood cell count at 92.1 mg/kg, ig bid for 7 days (reference value: 7.55 +/- 0.59 10^12/L)", "type": "organism-based", "conditions": "in vivo, po, 168 h"}, "Mus musculus [27]": {"test_system": "Mus musculus", "assay": "Toxicity in Balb/c mouse assessed as platelet count at 92.1 mg/kg, ig bid for 7 days (reference value: 802 +/- 74 10^9/L)", "type": "organism-based", "conditions": "in vivo, po, 168 h"}},
  "note": "Activity calls are given as the source filed them. The rule behind the calls is not given here.",
  "data": [
    {"smiles": "CC(=O)Oc1ccccc1C(=O)O[C@H]1CC[C@@]2(C)C(=CC[C@H]3[C@@H]4C[C@@H]5O[C@]6(CC[C@@H](C)CO6)[C@@H](C)[C@@H]5[C@@]4(C)CC[C@@H]32)C1", "values": [
      {"measurement": "Activity", "setting": "Mus musculus [1]", "result": 7.82, "unit": "×10⁹ /L"},
      {"measurement": "Activity", "setting": "Mus musculus [2]", "result": 133, "unit": "g/L"},
      {"measurement": "Activity", "setting": "Mus musculus [3]", "result": 38.9, "unit": "%"},
      {"measurement": "Activity", "setting": "Mus musculus [4]", "result": "Non-toxic"},
      {"measurement": "UI", "setting": "Rattus norvegicus [5]", "result": 0.66},
      {"measurement": "Activity", "setting": "Rattus norvegicus [6]", "result": "Non-toxic"},
      {"measurement": "Activity", "setting": "Rattus norvegicus [7]", "result": "Non-toxic"},
      {"measurement": "Activity", "setting": "Mus musculus [8]", "result": "Non-toxic"},
      {"measurement": "Activity", "setting": "Mus musculus [9]", "result": "Non-toxic"},
      {"measurement": "Activity", "setting": "Mus musculus [10]", "result": "Non-toxic"},
      {"measurement": "Activity", "setting": "Rattus norvegicus [11]", "result": 29.42, "unit": "%"},
      {"measurement": "APTT", "setting": "Rattus norvegicus [12]", "result": 22.6, "unit": "s"},
      {"measurement": "inhibition", "setting": "Rattus norvegicus [13]", "result": "Dose-dependent effect"},
      {"measurement": "PT", "setting": "Rattus norvegicus [14]", "result": 11.4, "unit": "s"},
      {"measurement": "TT", "setting": "Rattus norvegicus [15]", "result": 46.7, "unit": "s"},
      {"measurement": "Activity", "setting": "Rattus norvegicus [16]", "result": "Active"},
      {"measurement": "Activity", "setting": "Rattus norvegicus [17]", "result": "inactive"},
      {"measurement": "Activity", "setting": "Rattus norvegicus [18]", "result": "inactive"},
      {"measurement": "Activity", "setting": "Rattus norvegicus [19]", "result": "inactive"},
      {"measurement": "Activity", "setting": "Rattus norvegicus [20]", "result": "inactive"},
      {"measurement": "Activity", "setting": "Rattus norvegicus [21]", "result": 5, "unit": "mm"},
      {"measurement": "Activity", "setting": "Rattus norvegicus [22]", "result": 6.34, "unit": "mg"},
      {"measurement": "Activity", "setting": "Rattus norvegicus [23]", "result": 5.83, "unit": "mm"},
      {"measurement": "Activity", "setting": "Rattus norvegicus [24]", "result": 9.12, "unit": "mg"},
      {"measurement": "Time", "setting": "Mus musculus [25]", "result": 676, "unit": "s"},
      {"measurement": "Activity", "setting": "Mus musculus [26]", "result": 7.05, "unit": "×10¹² /L"},
      {"measurement": "Activity", "setting": "Mus musculus [27]", "result": 790, "unit": "×10⁹ /L"}
    ]}
  ]
}
